Test results published in PubChem BioAssay (NCI).
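1) Cells in 96-well plates. 2) Compound, 48 h, 5 concentrations. 3) Linear interpolation between surrounding doses. 4) Unreached endpoint = highest concentration. Definition used: TGI = concentration required for complete inhibition of growth.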

Experiments:
Experiment in all cases: DTP human tumour cell line panel, 48 h
MDA-N = test system: MDA-N
DU-145 prostate = test system: DU-145 prostate
SN12C renal = test system: SN12C renal
RPMI-8226 leukemia = test system: RPMI-8226 leukemia
MALME-3M melanoma = test system: MALME-3M melanoma
HL-60(TB) leukemia = test system: HL-60(TB) leukemia
TK-10 renal = test system: TK-10 renal
ACHN renal = test system: ACHN renal
IGROV1 ovarian = test system: IGROV1 ovarian
M14 melanoma = test system: M14 melanoma
KM12 colon = test system: KM12 colon
HT29 colon = test system: HT29 colon
SF-268 CNS = test system: SF-268 CNS

Compound | TGI (MDA-N) [µM] | TGI (DU-145 prostate) [µM] | TGI (SN12C renal) [µM] | TGI (RPMI-8226 leukemia) [µM] | TGI (MALME-3M melanoma) [µM] | TGI (HL-60(TB) leukemia) [µM] | TGI (TK-10 renal) [µM] | TGI (ACHN renal) [µM] | TGI (IGROV1 ovarian) [µM] | TGI (M14 melanoma) [µM] | TGI (KM12 colon) [µM] | TGI (HT29 colon) [µM] | TGI (SF-268 CNS) [µM]
c1ncc(C23C4C5C6C4C2C6C53)[nH]1 (stereo not drawn) | > 100 | > 100 | > 100 | > 100 | > 100 | > 100 | > 100 | > 100 | > 100 | > 100 | > 100 | > 100 | > 100
NC(=S)NS(=O)(=O)c1ccc(F)cc1 | > 100 | > 100 | > 100 | > 100 | > 100 | > 100 | > 100 | > 100 | > 100 | > 100 | > 100 | > 100 | > 100
O=C1NC(c2ccccc2)C1N(Cc1ccccc1)Cc1ccccc1 (stereo not drawn) | > 100 | > 100 | > 100 | > 100 | > 100 | > 100 | > 100 | > 100 | > 100 | > 100 | > 100 | > 100 | > 100
CSc1nc2ccccc2c(=O)n1-c1cccc(C)c1 | 72.5 | > 100 | > 100 | > 100 | > 100 | 9.77 | > 100 | > 100 | > 100 | > 100 | > 100 | > 100 | > 100
COC(=O)c1c(OC(C)=O)ccc2c1c1c(n2Cc2ccccc2)C(=O)c2ccccc2C1=O | 38.3 | 36.5 | 37.5 | 36.4 | 50.7 | 57.2 | 95.4 | > 100 | 50.4 | 47.5 | 47.4 | 32.3 | 78.1
NC(N)=NCCCS(=O)(=O)Nc1ccc(Nc2c3ccccc3nc3cc([N+](=O)[O-])ccc23)cc1 | 81.1 | 25.2 | 60.9 | 66.6 | 37.2 | > 82.4 | > 84.5 | 63 | 79.5 | > 87.2 | 51.4 | 55 | 35.6
